Test results published in PubChem BioAssay AID248 (DTP/NCI, 2004).
Several values for one entry are separate records, joined by “and”; a condition that tells them apart may be missing. Equal entries are not always repeated. Inconclusive results and toxic doses are left out. Rule as the data show it: active = T/C of 150% or more; inactive = T/C below 125%.

Test system: L1210 leukemia ip in BDF1 mice, survival T/C
Experiment: NCI In Vivo Anticancer Drug Screen. Data for tumor model L1210 Leukemia (intraperitoneal) in B6D2F1 (BDF1) mice
Details: endpoint: mean survival time, higher = longer survival
In short: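 Mice bearing the transplanted tumor received compound or vehicle. Survival of the treated group was divided by that of the vehicle-treated control group to give the ratio.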

[1] = dose: 100.0 mg/kg/injection, schedule: Q01DX001 (ip), vehicle: saline with Tween-80
[2] = dose: 200.0 mg/kg/injection, schedule: Q01DX001 (ip), vehicle: saline with Tween-80
[3] = dose: 100.0 mg/kg/injection, schedule: Q01DX001 (ip), vehicle: saline
[4] = dose: 200.0 mg/kg/injection, schedule: Q01DX001 (ip), vehicle: saline
[5] = dose: 100.0 mg/kg/injection, schedule: Q01DX009 (ip), vehicle: Klucel (hydroxypropylcellulose) (HPC)
[6] = dose: 100.0 mg/kg/injection, schedule: Q04DX002 (ip), vehicle: Klucel (hydroxypropylcellulose) (HPC)
[7] = dose: 200.0 mg/kg/injection, schedule: Q01DX009 (ip), vehicle: Klucel (hydroxypropylcellulose) (HPC)
[8] = dose: 200.0 mg/kg/injection, schedule: Q04DX002 (ip), vehicle: Klucel (hydroxypropylcellulose) (HPC)
[9] = dose: 400.0 mg/kg/injection, schedule: Q04DX002 (ip), vehicle: Klucel (hydroxypropylcellulose) (HPC)
[10] = dose: 100.0 mg/kg/injection, schedule: Q01DX001 (ip), vehicle: carboxymethylcellulose (CMC)
[11] = dose: 200.0 mg/kg/injection, schedule: Q01DX001 (ip), vehicle: carboxymethylcellulose (CMC)
[12] = dose: 200.0 mg/kg/injection, schedule: Q04DX003 (ip), vehicle: Klucel (hydroxypropylcellulose) (HPC)
[13] = dose: 400.0 mg/kg/injection, schedule: Q01DX009 (ip), vehicle: Klucel (hydroxypropylcellulose) (HPC)
[14] = dose: 50.0 mg/kg/injection, schedule: Q01DX001 (ip), vehicle: carboxymethylcellulose (CMC)

Measured: T/C

O=C1C(Cl)=C(N2CC2)C(=O)C(Cl)=C1N1CC1
inactive: dose: 0.31 mg/kg/injection, schedule: Q01DX009 (ip), vehicle: alcohol 106 % of control | dose: 0.62 mg/kg/injection, schedule: Q01DX009 (ip), vehicle: alcohol 112 % of control | dose: 1.25 mg/kg/injection, schedule: Q01DX009 (ip), vehicle: alcohol 106 % of control | dose: 1.25 mg/kg/injection, schedule: Q01DX009 (ip), vehicle: saline 113 % of control | dose: 2.5 mg/kg/injection, schedule: Q01DX009 (ip), vehicle: alcohol 112 % of control | dose: 5.0 mg/kg/injection, schedule: Q01DX009 (ip), vehicle: alcohol 118 % of control | dose: 10.0 mg/kg/injection, schedule: Q01DX009 (ip), vehicle: saline 114 % of control

CCCCCCCCCCCCN=Cc1cc(Cl)ccc1O
inactive: dose: 222.0 mg/kg/injection, schedule: Q01DX Z (ip), vehicle: methylcellulose (MC) 95 % of control | dose: 333.0 mg/kg/injection, schedule: Q01DX Z (ip), vehicle: methylcellulose (MC) 102 % of control | dose: 500.0 mg/kg/injection, schedule: Q01DX Z (ip), vehicle: methylcellulose (MC) 102 % of control

CCOc1ccc(C2(C)CC(=O)NN2)c(O)c1 (centres undefined)
inactive: [1] 101 % of control | [2] 103 % of control | dose: 400.0 mg/kg/injection, schedule: Q01DX001 (ip), vehicle: saline with Tween-80 98 % of control

O=CNc1ccccc1
inactive: dose: 100.0 mg/kg/injection, schedule: Q04DX003 (ip), vehicle: saline with Tween-80 96 % of control | dose: 200.0 mg/kg/injection, schedule: Q04DX003 (ip), vehicle: saline with Tween-80 98 % of control | dose: 400.0 mg/kg/injection, schedule: Q04DX003 (ip), vehicle: saline with Tween-80 98 % of control

CC(COc1cc(Cl)c(Cl)cc1Cl)OC(=O)COc1ccc(Cl)cc1Cl (centres undefined)
inactive: [3] 88 % of control | [4] 95 % of control | dose: 400.0 mg/kg/injection, schedule: Q01DX001 (ip), vehicle: saline 95 % of control

Cc1ccc(C)[nH]1
inactive: dose: 5.0 mg/kg/injection, schedule: Q01DX009 (ip), vehicle: saline with Tween-80 96 % of control | dose: 5.0 mg/kg/injection, schedule: Q04DX003 (ip), vehicle: saline with Tween-80 93 % of control | dose: 10.0 mg/kg/injection, schedule: Q01DX009 (ip), vehicle: saline with Tween-80 94 % of control | dose: 10.0 mg/kg/injection, schedule: Q04DX003 (ip), vehicle: saline with Tween-80 98 % of control | dose: 20.0 mg/kg/injection, schedule: Q01DX009 (ip), vehicle: saline with Tween-80 100 % of control | dose: 20.0 mg/kg/injection, schedule: Q04DX003 (ip), vehicle: saline with Tween-80 93 % of control

[CH3][Sn]([CH3])([CH3])[CH2][Sn]([CH3])([CH3])[CH3]
inactive: dose: 50.0 mg/kg/injection, schedule: Q01DX009 (ip), vehicle: saline 101 % of control | dose: 100.0 mg/kg/injection, schedule: Q01DX009 (ip), vehicle: saline 93 % of control and 103 % of control | dose: 200.0 mg/kg/injection, schedule: Q01DX009 (ip), vehicle: saline 98 % of control

CC(=O)OCc1c(O)c2c(c(O)c1COC(C)=O)C(=O)C=CC2=O
inactive: dose: 2.0 mg/kg/injection, schedule: Q01DX009 (ip), vehicle: saline 96 % of control | dose: 4.0 mg/kg/injection, schedule: Q01DX009 (ip), vehicle: saline 96 % of control | dose: 8.0 mg/kg/injection, schedule: Q01DX009 (ip), vehicle: saline 88 % of control | dose: 16.0 mg/kg/injection, schedule: Q01DX009 (ip), vehicle: saline 91 % of control

Cc1cccc(NC(=O)Nc2cccc(Cl)c2Cl)n1
inactive: [5] 92 % of control | [6] 89 % of control | [7] 92 % of control | [8] 92 % of control | [9] 103 % of control

CC(=O)OCc1ccc(OC(C)=O)cn1
inactive: [10] 100 % of control | [11] 103 % of control | dose: 400.0 mg/kg/injection, schedule: Q01DX001 (ip), vehicle: carboxymethylcellulose (CMC) 94 % of control

CCN(N=O)C(=O)NC1C(O)OC(CO)C(O)C1O (centres undefined)
inactive: dose: 25.0 mg/kg/injection, schedule: Q01DX009 (ip), vehicle: other 100 % of control | dose: 50.0 mg/kg/injection, schedule: Q01DX009 (ip), vehicle: other 118 % of control | dose: 100.0 mg/kg/injection, schedule: Q01DX009 (ip), vehicle: other 113 % of control | dose: 200.0 mg/kg/injection, schedule: Q01DX009 (ip), vehicle: other 112 % of control

CCOC(=O)C(C(=O)OCC)C(C)(C)Cc1ccccc1
inactive: [5] 92 % of control | [7] 100 % of control | [12] 96 % of control | [13] 93 % of control | dose: 400.0 mg/kg/injection, schedule: Q04DX003 (ip), vehicle: Klucel (hydroxypropylcellulose) (HPC) 93 % of control

CSc1nc(N)cc(OCc2ccccc2)n1
inactive: dose: 50.0 mg/kg/injection, schedule: Q01DX001 (ip), vehicle: saline with Tween-80 100 % of control | [1] 97 % of control | [2] 92 % of control

ClC12c3ccccc3C(c3ccccc31)C1(Cl)c3ccccc3C2c2ccccc21
inactive: [6] 102 % of control | [8] 109 % of control | [9] 106 % of control

O=C1C(Cl)=C(Nc2ccc3cn[nH]c3c2)C(=O)c2ccccc21
inactive: [14] 102 % of control | [10] 100 % of control | [11] 102 % of control

Oc1[nH]c(=S)sc1/C=C1\C=NN=N1
inactive: dose: 100.0 mg/kg/injection, schedule: Q01DX001 (ip), vehicle: other 108 % of control | dose: 200.0 mg/kg/injection, schedule: Q01DX001 (ip), vehicle: other 97 % of control | dose: 400.0 mg/kg/injection, schedule: Q01DX001 (ip), vehicle: other 101 % of control

OCC(O)C(O)/C=N/Nc1cc(Cl)ccc1Cl (centres undefined)
inactive: [14] 90 % of control | [10] 104 % of control | [11] 95 % of control

C#C[C@]1(O)CC[C@H]2[C@@H]3CCc4cc(O)ccc4[C@H]3CC[C@@]21C
inactive: dose: 62.5 mg/kg/injection, schedule: Q04DX003 (sc), vehicle: steriod suspending solution 96 % of control | dose: 125.0 mg/kg/injection, schedule: Q04DX003 (sc), vehicle: steriod suspending solution 100 % of control | dose: 250.0 mg/kg/injection, schedule: Q04DX003 (sc), vehicle: steriod suspending solution 97 % of control | dose: 500.0 mg/kg/injection, schedule: Q04DX003 (sc), vehicle: steriod suspending solution 99 % of control

COc1ccc(COC(=O)Nc2ccc([N+](=O)[O-])cc2OC)cc1
inactive: [5] 90 % of control | [7] 91 % of control | [13] 106 % of control

CCOC(=O)C1C(=O)NC(C(=O)OCC)(C(=O)OCC)C1C(C)C (centres undefined)
inactive: dose: 50.0 mg/kg/injection, schedule: Q04DX003 (ip), vehicle: Klucel (hydroxypropylcellulose) (HPC) 96 % of control | dose: 100.0 mg/kg/injection, schedule: Q04DX003 (ip), vehicle: Klucel (hydroxypropylcellulose) (HPC) 100 % of control | [12] 96 % of control

O=C(Nc1ccc(CCC2=NCCCN2)cc1)c1ccc(C(=O)Nc2ccc(CCC3=NCCCN3)cc2)cc1
inactive: dose: 60.0 mg/kg/injection, schedule: Q01DX Z (ip), vehicle: saline 118 % of control | dose: 120.0 mg/kg/injection, schedule: Q01DX Z (ip), vehicle: saline 110 % of control | dose: 240.0 mg/kg/injection, schedule: Q01DX Z (ip), vehicle: saline 112 % of control

C=C1C(=O)N(C)C(C(=O)OC)CC1C(CC)C(=O)OC (centres undefined)
inactive: dose: 25.0 mg/kg/injection, schedule: Q01DX001 (ip), vehicle: saline 104 % of control | dose: 50.0 mg/kg/injection, schedule: Q01DX001 (ip), vehicle: saline 114 % of control | [3] 95 % of control | [4] 108 % of control

NC(=O)C(N)CO (centres undefined)
inactive: dose: 100.0 mg/kg/injection, schedule: Q04DX002 (ip), vehicle: saline 96 % of control | dose: 200.0 mg/kg/injection, schedule: Q04DX002 (ip), vehicle: saline 104 % of control | dose: 400.0 mg/kg/injection, schedule: Q04DX002 (ip), vehicle: saline 111 % of control
